In the Bradley open melting point set (2014):
Values joined by “and” are separate entries in the source; they are usually repeats but may differ in a detail not shown here. Identical values can stand only once.

| melting point | Compound |
| --- | --- |
| 47 °C | COc1cc(O)cc(OC)c1 [3,5-dimethoxyphenol] |
| 9 °C | Cc1cc(C)cc(C=O)c1 [3,5-dimethylbenzaldehyde] |
| 236 °C | Cc1cc(C)cc(B(O)O)c1 [3,5-dimethylbenzeneboronic acid] |
| 107 °C | Cc1noc(C)c1B(O)O [3,5-dimethylisoxazole-4-boronic acid] |
| 63.4 °C and 65.5 °C | Cc1cc(C)cc(O)c1 [3,5-dimethylphenol] |
| 68 °C | Clc1ccc(Cl)nn1 [3,6-dichloropyridazine] |
| 210 °C | Cc1cc(O)c(C)c(=O)o1 [3,6-dimethyl-4-hydroxy-2-pyrone] |
| 59 °C | O=CC(=Cc1ccco1)c1ccccc1 [3-(2-furyl)-2-phenylpropenal] |
| 158 °C | CN(C)C(=O)Nc1ccc(Cl)c(Cl)c1 [3-(3,4-dichlorophenyl)-1,1-dimethylurea] |
| 160 °C | COc1ccc(C(=O)CCC(=O)O)cc1OC [3-(3,4-dimethoxybenzoyl)propionic acid] |
| 112 °C | O=C(O)CCc1cccc(O)c1 [3-(3-hydroxyphenyl)propionic acid] |
| 147 °C | O=C(O)CCC(=O)c1ccc(Br)cc1 [3-(4-bromobenzoyl)propionic acid] |
| 290 °C | O=C(O)CCc1ccc(C(=O)O)cc1 [3-(4-carboxyphenyl)propionic acid] |
| 101 °C | N#CC(=Cc1ccc(Cl)cc1)C(N)=O [3-(4-chlorophenyl)-2-cyanoacrylamide] |
| 126 °C | Cc1ccc(C(=O)CCC(=O)O)cc1 [3-(4-methylbenzoyl)propionic acid] |
| 83 °C | CN(C)c1cccc(O)c1 [3-(Dimethylamino)phenol] |
| 277 °C | O=S(=O)(O)CCCN1CCOCC1 [3-(Morpholin-4-yl)propane-1-sulfonic acid] |
| 96 °C | OCc1cccc(B(O)O)c1 [3-(hydroxymethyl)benzeneboronic acid] |
| 136 °C | COC(=O)c1cccc(B(O)O)c1 [3-(methoxycarbonyl)benzeneboronic acid] |
| 103 °C | O=C1OC(Sc2ccccc2)c2ccccc21 (stereo not drawn) [3-(phenylsulfanyl)-2-benzofuran-1(3H)-one] |
| 80 °C | OB(O)c1cccc(OC(F)(F)F)c1 [3-(trifluoromethoxy)benzeneboronic acid] |
| 164 °C | OB(O)c1cccc(C(F)(F)F)c1 [3-(trifluoromethyl)benzeneboronic acid] |
| 16 °C | N#Cc1cccc(C(F)(F)F)c1 [3-(trifluoromethyl)benzonitrile] |
| 78 °C | O=C(O)Cc1cccc(C(F)(F)F)c1 [3-(trifluoromethyl)phenylacetic acid] |
| 125 °C | Nc1cccc(O)c1 [3-Aminophenol] |
| 194 °C | CC(=O)C=Cc1ccc([N+](=O)[O-])o1 [3-Buten-2-one, 4- (5-nitro-2-furanyl)-] |

| melting point | Compound |
| --- | --- |
| 106 °C | COc1cccc(C(=O)O)c1 [3-Methoxybenzoic acid] |
| 112 °C | Cc1cccc(C(=O)O)c1 [3-Methylbenzoic acid] |
| -100 °C | CC(=O)OCCC(C)C [3-Methylbutyl acetate] |
| 145 °C | CC(C)CCCC(C)C1CCC2C3CC=C4CC(OCOc5ccc(Cl)cc5)CCC4(C)C3CCC12C (stereo not drawn) [3-[(4-chlorophenoxy)methoxy]cholest-5-ene] |
| 66 °C | O=C1C=C(/C=C/c2ccccc2)CCC1 [3-[(E)-2-phenylethenyl]cyclohex-2-en-1-one] |
| 155 °C | N#CC(=CN(O)c1ccccc1)c1ccccc1 [3-[hydroxy(phenyl)amino]-2-phenylprop-2-enenitrile] |
| 165 °C | CC(=O)OC1(C(C)=O)CCC2(C)C(CCC3C4CCCC4(C)CCC32)C1 (stereo not drawn) [3-acetylandrostan-3-yl acetate] |
| 192 °C | Nc1cccnc1[N+](=O)[O-] [3-amino-2-nitropyridine] |
| 216 °C | Nc1cc(C(=O)O)ccc1Cl [3-amino-4-chlorobenzoic acid] |
| 144 °C | Nc1cc(C(=O)O)cc(C(F)(F)F)c1 [3-amino-5-(trifluoromethyl)benzoic acid] |
| 45 °C | Cc1cc(N)n[nH]1 [3-amino-5-methyl-1h-pyrazole] |
| 149 °C | CSc1[nH]nc(N)c1C#N [3-amino-5-methylthio-1h-pyrazole-4-carbonitrile] |
| 77 °C | CC(C)(C)c1cc(N)n[nH]1 [3-amino-5-tert-butyl-1h-pyrazole] |
| 136 °C | Nc1cc2ccccc2oc1=O [3-aminocoumarin] |
| 121 °C | NC(=O)c1sccc1N [3-aminothiophene-2-carboxamide] |
| 123 °C | OB(O)c1cccc(OCc2ccccc2)c1 [3-benzyloxybenzeneboronic acid] |
| 146 °C | COc1ccc(Br)c(OC)c1C(=O)O [3-bromo-2,6-dimethoxybenzoic acid] |
| 104 °C | O=[N+]([O-])c1ncccc1Br [3-bromo-2-nitropyridine] |
| 27 °C | Cc1ccc(N)cc1Br [3-bromo-4-methylaniline] |
| 153 °C | O=[N+]([O-])c1cc[n+]([O-])cc1Br [3-bromo-4-nitropyridine n-oxide] |
| 156 °C | O=C(O)c1cccc(Br)c1 [3-bromobenzoic acid] |
| 27 °C | N#CCc1cccc(Br)c1 [3-bromophenylacetonitrile] |
| 94 °C | CCCC(=O)c1cc2ccccc2oc1=O [3-butyrylcoumarin] |
| 218 °C | O=C(O)c1cc(B(O)O)ccc1F [3-carboxy-4-fluorobenzeneboronic acid] |
| 237 °C | O=C(O)c1cccc(Cl)c1[N+](=O)[O-] [3-chloro-2-nitrobenzoic acid] |
| 46 °C | Nc1ccc(F)c(Cl)c1 [3-chloro-4-fluoroaniline] |

| melting point | Compound |
| --- | --- |
| 146 °C | NC(=O)c1ccc(F)c(Cl)c1 [3-chloro-4-fluorobenzamide] |
| 212 °C | O=Cc1ccc(B(O)O)cc1Cl [3-chloro-4-formylbenzeneboronic acid] |
| 199 °C | Cc1ccc(C(=O)O)cc1Cl [3-chloro-4-methylbenzoic acid] |
| 93 °C | CC(C)CCCC(C)C1CCC2C3CC=C4CC(Cl)CCC4(C)C3CCC12C (stereo not drawn) [3-chlorocholest-5-ene] |
| 17 °C | O=C(O)C1CC=CCC1 (stereo not drawn) [3-cyclohexene-1-carboxylic acid] |
| 144 °C | CCOc1cccc(B(O)O)c1 [3-ethoxybenzeneboronic acid] |
| -96 °C | CCc1cccc(C)c1 [3-ethyltoluene] |
| 240 °C | O=Cc1ccc(B(O)O)cc1F [3-fluoro-4-formylbenzeneboronic acid] |
| 238 °C | COc1ccc(B(O)O)cc1F [3-fluoro-4-methoxybenzeneboronic acid] |
| 33 °C | Cc1ccc(N)cc1F [3-fluoro-4-methylaniline] |
| 170 °C | Cc1ccc(C(=O)O)cc1F [3-fluoro-4-methylbenzoic acid] |
| 104 °C | O=C(O)c1cc(F)cc(C(F)(F)F)c1 [3-fluoro-5-(trifluoromethyl)benzoic acid] |
| -55 °C | CCCC(=O)CC [3-hexanone] |
| 202 °C | COc1ccc2oc(-c3cc(OC)c(OC)cc3OC)c(O)c(=O)c2c1 [3-hydroxy-2',4',5',6-tetramethoxyflavone] |
| 234 °C | O=C(O)c1ccc([N+](=O)[O-])c(O)c1 [3-hydroxy-4-nitrobenzoic acid] |
| 127 °C | O=C1OC(c2ccccc2)(c2ccccc2)C=C1O [3-hydroxy-5,5-diphenylfuran-2(5H)-one] |
| 137 °C | COc1ccc2c(c1)C(O)OC2=O (stereo not drawn) [3-hydroxy-5-methoxy-2-benzofuran-1(3H)-one] |
| 175 °C | COc1cccc2oc(-c3ccccc3)c(O)c(=O)c12 [3-hydroxy-5-methoxyflavone] |
| 80 °C | N#Cc1cccc(O)c1 [3-hydroxybenzonitrile] |
| 38 °C | CC(O)CC(=O)O (stereo not drawn) [3-hydroxybutyric acid] |
| -99 °C | C=CCI [3-iodo-1-propene] |
| 23 °C | Nc1cccc(I)c1 [3-iodoaniline] |
| 187 °C | O=C(O)c1cccc(I)c1 [3-iodobenzoic acid] |
| 130 °C | O=C(O)Cc1cccc(I)c1 [3-iodophenylacetic acid] |

| Compound | melting point |
| --- | --- |
| O=C(O)c1cc([N+](=O)[O-])cc([N+](=O)[O-])c1 [3,5-dinitrobenzoic acid] | 206 °C |
| O=C(O)c1cc([N+](=O)[O-])cc([N+](=O)[O-])c1O [3,5-dinitrosalicylic acid] | 171 °C |
| O=NN1CN2CN(C1)CN(N=O)C2 [3,7-Dinitroso-1,3,5,7-tetraazabicyclo[3.3.1]nonane] | 207 °C |
| CC12CCC3C(CCC4CC(OCc5ccccc5)CCC43C)C1CCC2=O (stereo not drawn) [3-(benzyloxy)androstan-17-one] | 220 °C |
| Cc1cc(C)c(C)c(CCl)c1C [3-(chloromethyl)-1,2,4,5-tetramethylbenzene] | 70.5 °C |
| Nc1cccc(C(F)(F)F)c1 [3-(trifluoromethyl)aniline] | 6 °C |
| C=CCCl [3-Chloroprop-1-ene] | -134 °C |
| CC12CCC3C(CCC4CC(O)CCC43C)C1CCC2=O (stereo not drawn) [3-Hydroxyandrostan-17-one] | 174 °C |
| O=C(O)CC[N+](=O)[O-] [3-Nitropropanoic acid] | 64 °C |
| CC(=O)Oc1cccc(C(=O)O)c1C [3-acetoxy-2-methylbenzoic acid] | 150 °C |
| CC(=O)Oc1cccc(C(C)=O)c1 [3-acetoxy_acetophenone] | 44 °C |
| Nc1nc[nH]n1 [3-amino-1,2,4-triazole] | 151 °C |
| O=C(O)c1cccc(Cl)c1 [3-chlorobenzoic acid] | 157 °C |
| N#CCCCl [3-chloropropionitrile] | -50 °C |
| N#Cc1cccc(C(=O)O)c1 [3-cyanobenzoic_acid] | 223 °C |
| N#Cc1cccnc1 [3-cyanopyridine] | 50 °C |
| CCC1(O)CCC2(C)C(CCC3C4CCC(=O)C4(C)CCC32)C1 (stereo not drawn) [3-ethyl-3-hydroxyandrostan-17-one] | 115 °C |
